A word on the IC50: it is the concentration that inhibits the measured activity by half. The Kd is a measure of binding affinity in units of concentration.

The test system of test [1] is PC-9 cells (EGFR Ex19Del). As to the kind of experiment: Potency Assay: pERK (SOS1 pERK IC50 Assay, AlphaLISA SureFire Ultra p-ERK1/2). In kind it is cell-based. As to conditions: Homo sapiens, read-out: SOS1 pERK IC50. The method, boiled down: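 Cellular pERK1/2 by AlphaLISA SureFire Ultra after 1 h compound exposure (37° C., highest concentration 10 μM, 3-fold steps, duplicates) of EGFR Ex19Del PC-9 cells seeded the day before. A 4-parameter fit of signal versus log concentration gives IC50.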
Background: Alpha assays give light when donor and acceptor beads are brought close together.

Test [2] concerns the target T1, SOS1 catalytic domain (residues 564-1049) (Homo sapiens, UniProt Q07889).
T1 sequence (Q07889 564-1049): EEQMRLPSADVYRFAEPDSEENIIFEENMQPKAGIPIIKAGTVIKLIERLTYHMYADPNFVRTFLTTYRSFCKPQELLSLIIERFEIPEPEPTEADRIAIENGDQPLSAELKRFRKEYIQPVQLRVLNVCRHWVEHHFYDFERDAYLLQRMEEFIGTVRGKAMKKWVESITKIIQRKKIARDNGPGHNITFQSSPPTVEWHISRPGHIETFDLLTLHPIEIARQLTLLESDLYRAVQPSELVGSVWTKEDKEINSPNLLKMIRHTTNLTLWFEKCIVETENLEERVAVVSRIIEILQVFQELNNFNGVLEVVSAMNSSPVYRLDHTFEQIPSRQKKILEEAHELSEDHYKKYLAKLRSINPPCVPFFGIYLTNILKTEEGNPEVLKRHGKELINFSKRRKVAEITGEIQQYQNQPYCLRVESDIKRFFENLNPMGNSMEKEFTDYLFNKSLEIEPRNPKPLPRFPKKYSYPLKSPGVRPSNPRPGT
The experiment in a line: Potency Assay: binding affinity to SOS1 using Surface Plasmon Resonance (SPR). Also noted: SOS1 catalytic domain (residues 564-1049) immobilized on a sensor chip. As to conditions: immobilized SOS1 catalytic domain (residues 564-1049), read-out: SOS1 SPR Equilibrium Kd. The method, boiled down:
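Kd was obtained by plotting binding response, taken just before association ended, versus compound concentration on a Biacore 8K. Compounds flowed at 50 μL/min over streptavidin-captured avi-SOS1 catalytic domain (~6000 RU), followed by buffer dissociation; HEPES 0.01 M/NaCl 0.15 M/0.05% P20 buffer, double-referenced.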

Test [3] addresses T1, SOS1 catalytic domain (residues 564-1049). As to the kind of experiment: Mode of Action Assay: inhibition of SOS1 nucleotide exchange activity (SOS1 TR-FRET IC50 Assay). In general terms: In TR-FRET formats the signal depends on donor and acceptor labels being close together.
Setting [4] is: PC-9 cells (EGFR Ex19Del), 1 hour incubation, AlphaLISA p-ERK1/2.

Like-named read-outs stand apart in the source and are kept apart here.

As for `Cc1c(C(C)Nc2nc(Cl)nc3c2CN(C(=O)N2CCOCC2)C3)cccc1C(F)(F)CO` (stereo not drawn) [Example 507, 2-[3-(1-{[2-chloro-6-(morpholine-4-carbonyl)-5H,6H,7H-pyrrolo[3,4-d]pyrimidin-4-yl]amino}ethyl)-2-methylphenyl]-2,2-difluoroethan-1-ol], the half-maximal inhibitory concentration (IC50) in test [1] (setting [4]) was more than 1000 nM; in test [3], less than 1000 nM. In addition, in test [2], the Kd was less than 400 nM.
Regarding `C[C@@H](Nc1nc(Cl)nc2c1CN(C(=O)c1nccnn1)CC2)c1cc(N)cc(C(F)(F)F)c1` [Example 248], the IC50 in test [1] (setting [4]) and in test [3] was more than 1000 nM in each case. Further, in test [2], the Kd is more than 400 nM.
Take `C[C@@H](Nc1nc(Cl)nc2c1CN(C(=O)N1CCOCC1)C2)c1cccc(C(F)(F)COC2COC2)c1` [Example 479, 2-chloro-N-[(1R)-1-{3-[1,1-difluoro-2-(oxetan-3-yloxy)ethyl]phenyl}ethyl]-6-(morpholine-4-carbonyl)-5H,6H,7H-pyrrolo[3,4-d]pyrimidin-4-amine]: the IC50 in test [1] (setting [4]) and in test [3] was less than 1000 nM each time. Further, the Kd in test [2] was less than 400 nM.
For `C[C@@H](Nc1nc(Cl)nc2c1CN(C(=O)C1(F)CCN(C3COC3)CC1)C2)c1cccc(C(F)F)c1F` [Example 331], the half-maximal inhibitory concentration (IC50) in test [1] (setting [4]) and in test [3] was less than 1000 nM throughout. The dissociation constant (Kd) in test [2] was less than 400 nM.
Regarding `C[C@@H](Nc1nc(Cl)nc2c1CN(C(=O)C1(C)COC1)C2)c1cc(N)cc(C(F)(F)F)c1` [Example 261], the IC50 in test [1] (setting [4]) and in test [3] was less than 1000 nM in each case. Moreover, the Kd in test [2] was less than 400 nM.
With `C[C@@H](Nc1nc(Cl)nc2c1CN(C(=O)N1CCCNCC1)C2)c1cccc(C(F)F)c1F` [Example 400], the 50% inhibitory concentration (IC50) in test [1] (setting [4]) and in test [3] was less than 1000 nM throughout. Also, the equilibrium dissociation constant (Kd) in test [2] is less than 400 nM.
As to `C[C@@H](Nc1nc(Cl)nc2c1CN(C(=O)N1CCOCC1)C2)c1cccc(C(F)(F)C2CN(C)CCO2)c1` (stereo partly drawn) [Example 485, 2-chloro-N-[(1R)-1-{3-[difluoro(4-methylmorpholin-2-yl)methyl]phenyl}ethyl]-6-(morpholine-4-carbonyl)-5H,6H,7H-pyrrolo[3,4-d]pyrimidin-4-amine], the IC50 in test [1] (setting [4]) and in test [3] was less than 1000 nM each time. Further, the Kd in test [2] was less than 400 nM.
In the case of `C[C@@H](Nc1nc(CNC2CC2)nc2c1CN(C(=O)N1CCOCC1)C2)c1cccc(C(F)F)c1F` [Example 508, 2-[(cyclopropylamino)methyl]-N-{1-[3-(difluoromethyl)-2-fluorophenyl]ethyl}-6-(morpholine-4-carbonyl)-5H,6H,7H-pyrrolo[3,4-d]pyrimidin-4-amine], the IC50 was more than 1000 nM in test [1] (setting [4]) and less than 1000 nM in test [3]. Also, the dissociation constant (Kd) in test [2] was less than 400 nM.
The like results for `C[C@@H](Nc1nc(Cl)nc2c1CC(N1CC3(COC3)C1)CC2)c1cccc(C(F)(F)CO)c1` (stereo partly drawn) [Example 438] were, in that order, less than 1000 nM, less than 1000 nM and less than 400 nM.
As to `O=C(N1CCOCC1)N1Cc2nc(Cl)nc(NC(CF)c3cccc(C(F)(F)CO)c3)c2C1` (stereo not drawn) [Example 463, (2-chloro-4-((1-(3-(1,1-difluoro-2-hydroxyethyl)phenyl)-2-fluoroethyl)amino)-5,7-dihydro-6H-pyrrolo[3,4-d]pyrimidin-6-yl)(morpholino)methanone], the half-maximal inhibitory concentration (IC50) in test [1] (setting [4]) was more than 1000 nM; in test [3], less than 1000 nM. In addition, in test [2], the dissociation constant Kd was less than 400 nM.
The like results for `C[C@@H](Nc1nc(Cl)nc2c1CN(C(=O)c1ccnnc1)CC2)c1cc(N)cc(C(F)(F)F)c1` [Example 228] were, in that order, more than 1000 nM, less than 1000 nM and less than 400 nM.
`C[C@@H](Nc1nc(Cl)nc2c1CN(C(=O)N1CC3CCC(C1)N3)C2)c1cccc(C(F)F)c1F` [Example 388]: the concentration for half-maximal inhibition (IC50) in test [1] (setting [4]) and in test [3] was less than 1000 nM in each case. Further, the Kd in test [2] was less than 400 nM.
With `C[C@@H](Nc1nc(Cl)nc2c1C[C@@H](N1CCOCC1)CC2)c1cccc(C(F)(F)CO)c1` [Example 436], the IC50 in test [1] (setting [4]) and in test [3] was less than 1000 nM throughout. Moreover, the equilibrium dissociation constant (Kd) in test [2] was less than 400 nM.
Regarding `C[C@@H](Nc1nc(Cl)nc2c1CN(C(=O)N1CCOCC1)C2)c1cccc(C(F)(F)C2COCCN2C)c1` (stereo partly drawn) [Example 460, (2-chloro-4-(((1R)-1-(3-(difluoro(4-methylmorpholin-3-yl)methyl)phenyl)ethyl)amino)-5,7-dihydro-6H-pyrrolo[3,4-d]pyrimidin-6-yl)(morpholino)methanone], the IC50 in test [1] (setting [4]) and in test [3] was less than 1000 nM in each case. Further, the dissociation constant Kd in test [2] was less than 400 nM.
With `C[C@@H](Nc1nc(Cl)nc2c1CN(C(=O)C1(C)CN(C)C1)C2)c1cc(N)cc(C(F)(F)F)c1` [Example 265], the half-inhibitory concentration (IC50) in test [1] (setting [4]) and in test [3] was less than 1000 nM throughout. In addition, in test [2], the Kd is less than 400 nM.
For `C[C@@H](Nc1nc(Cl)nc2c1CN(C(=O)N1CCNC(C(F)(F)F)C1)C2)c1cccc(C(F)F)c1F` (stereo partly drawn) [Example 387], the half-inhibitory concentration (IC50) in test [1] (setting [4]) and in test [3] was less than 1000 nM throughout. In test [2], the Kd was less than 400 nM.
As to `C[C@@H](Nc1nc(Cl)nc2c1CN(C(=O)c1ccncn1)CC2)c1cc(N)cc(C(F)(F)F)c1` [Example 233], the IC50 in test [1] (setting [4]) and in test [3] was more than 1000 nM each time. Also, the Kd in test [2] is more than 400 nM.
In the case of `C[C@@H](Nc1nc(Cl)nc2c1CN(C(=O)N1CCOCC1)C2)c1cccc(C(F)(F)F)c1F` [Example 496], the IC50 in test [1] (setting [4]) and in test [3] was less than 1000 nM each time. Besides, the Kd in test [2] is more than 400 nM.
On to `C[C@@H](Nc1nc(Cl)nc2c1CN(C(=O)C1CCN(C)C1)C2)c1cc(N)cc(C(F)(F)F)c1` (stereo partly drawn) [Example 101], for which the half-maximal inhibitory concentration (IC50) in test [1] (setting [4]) and in test [3] was less than 1000 nM throughout. Besides, in test [2], the Kd was less than 400 nM.
`C[C@@H](Nc1nc(Cl)nc2c1CN(C(=O)C1(F)CN(C)C1)C2)c1cccc(C(F)F)c1F` [Example 408]: the IC50 in test [1] (setting [4]) and in test [3] was less than 1000 nM each time. Also, the Kd in test [2] is less than 400 nM.
As to `C[C@@H](Nc1nc(CN)nc2c1CN(C(=O)N1CCOCC1)C2)c1cc(N)cc(C(F)(F)F)c1` [Example 130, N-[(1R)-1-[3-amino-5-(trifluoromethyl)phenyl]ethyl]-2-(aminomethyl)-6-(morpholine-4-carbonyl)-5H,6H,7H-pyrrolo[3,4-d]pyrimidin-4-amine], the IC50 in test [1] (setting [4]) is more than 1000 nM; in test [3] it was less than 1000 nM. In addition, in test [2], the Kd is less than 400 nM.
For the compound `C[C@@H](Nc1nc(Cl)nc2c1CC(N1CCOCC1)CC2)c1cccc(C(F)(F)F)c1` (stereo partly drawn) [Example 435], the concentration for half-maximal inhibition (IC50) in test [1] (setting [4]) is more than 1000 nM; in test [3], less than 1000 nM. In test [2], the dissociation constant (Kd) was less than 400 nM.
Turning to `C[C@@H](Nc1nc(Cl)nc2c1CN(C(=O)C1CCN3CCOCC13)C2)c1cccc(C(F)F)c1F` (stereo partly drawn) [Example 318], the 50% inhibitory concentration (IC50) in test [1] (setting [4]) was more than 1000 nM; in test [3], less than 1000 nM. Besides, the Kd in test [2] is less than 400 nM.
In the same order, the values of `C[C@@H](Nc1nc(Cl)nc2c1CN(C(=O)C13CC(O)(C1)C3)CC2)c1cc(N)cc(C(F)(F)F)c1` [Example 193] are more than 1000 nM, more than 1000 nM and less than 400 nM.
In the same order, the values of `COc1cccnc1C(=O)N1CCc2nc(Cl)nc(N[C@H](C)c3cc(N)cc(C(F)(F)F)c3)c2C1` [Example 232] are more than 1000 nM, more than 1000 nM and more than 400 nM.
As for `C[C@@H](Nc1nc(Cl)nc2c1CN(C(=O)C1CC1)CC2)c1cc(N)cc(C(F)(F)F)c1` [Example 219], the IC50 in test [1] (setting [4]) and in test [3] was less than 1000 nM in each case. Further, the dissociation constant Kd in test [2] is less than 400 nM.
In the case of `C[C@@H](Nc1nc(Cl)nc2c1CN(C(=O)CN1CCN(C)CC1)C2)c1cccc(C(F)F)c1F` [Example 283], the IC50 in test [1] (setting [4]) and in test [3] was less than 1000 nM each time. The Kd in test [2] was less than 400 nM.
For `C[C@@H](Nc1nc(Cl)nc2c1CN(C(=O)N1CCOCC1)C2)c1cccc(C(F)F)c1Cl` [Example 522, 2-chloro-N-[(1R)-1-[2-chloro-3-(difluoromethyl)phenyl]ethyl]-6-(morpholine-4-carbonyl)-5H,6H,7H-pyrrolo[3,4-d]pyrimidin-4-amine], the IC50 in test [1] (PC-9, 1 h) was less than 1000 nM; in test [3], less than 1000 nM. In test [2], the Kd is less than 400 nM.
Regarding `C[C@@H](Nc1nc(C#N)nc2c1CN(C(=O)N1CCOCC1)C2)c1cc(N)cc(C(F)(F)F)c1` [Example 123, 4-{[(1R)-1-[3-amino-5-(trifluoromethyl)phenyl]ethyl]amino}-6-(morpholine-4-carbonyl)-5H,6H,7H-pyrrolo[3,4-d]pyrimidine-2-carbonitrile], the IC50 in test [1] (setting [4]) and in test [3] was less than 1000 nM in each case. The Kd in test [2] is less than 400 nM.
